# Experimental data reported in article PMC8480901 (PLoS ONE, 2021).
# Where “and” joins values, the source holds several entries; their conditions need not be identical. Equal entries are not always repeated.
# System: TNF-α, IL-6, IL-1β, GM-CSF, CXCL-1, CXCL-2, CCL-2 and MMP-9 in lung tissue
# Assay: LPS-induced cytokines, chemokines and MMP-9 in mouse lung homogenates (Luminex, ELISA)
# Settings: lung homogenate, LPS; for MMP9, Mean / TNFα Mean / CCL2 Mean / CXCL1, Mean / CXCL2, Mean / GM-CSF Mean / IL-1β Mean / IL-6 Mean: mean of 8; for CCL2 / CXCL1 / CXCL2 / GM-CSF / IL-1β / IL-6 / MMP9 / TNFα: individual animal, listed as Azi
# Method: To induce pulmonary neutrophilia, mice in the control group received intranasal (IN) 50 μL saline, and all other animals received 5 μg LPS/50 μL saline IN per mouse.
# After bronchoalveolar lavage, lungs were removed, weighed, snap frozen, and stored at −80°C until analysis. To homogenize the tissue, the frozen lungs were thawed and placed in Precellys CK28 Hard Tissue tubes (BERTIN Instruments, Montigny-le-Bretonneux, France) in 1 mL PBS (Gibco, Life Technologies, Paisley, UK) supplemented with protease inhibitors (Halt™ Protease Inhibitor Cocktail [100×]; Thermo Fisher Scientific, Rockford, IL, USA). A Precellys homogenizer (BERTIN Instruments) was used, shaking at 6800 rpm for three 30-second pulses separated by 15-second pauses. After homogenization, samples were centrifuged at 18,000×g for 10 minutes at 4°C, and the supernatants were collected for analysis.
# Concentrations of tumor necrosis factor (TNF)-α, IL-6, granulocyte-macrophage colony-stimulating factor (GM-CSF), chemokine (C-X-C motif) ligand (CXCL)-1, CXCL-2, and chemokine (C-C motif) ligand (CCL)-2 in mouse lung homogenates were analyzed with the Mouse Premixed Multi-Analyte Kit (R&D Systems, Minneapolis, MN, USA) per the manufacturer’s protocol and using a Luminex 200 System (Luminex Corporation, Austin, TX, USA). Cytokine and chemokine concentrations were determined from blank-corrected median fluorescence intensity of each sample via xPONENT® software (Luminex Corporation), interpolating from standard curves generated with a 5-parameter logistic curve-fit.
# Mouse Total MMP (matrix metalloprotease)-9 and IL-1β/IL-1F2 DuoSet ELISA (enzyme-linked immunosorbent assay) kits (R&D Systems) were used to measure concentrations of MMP-9 and IL-1β, respectively, in lung homogenates per the manufacturer’s protocols. Absorbance at 450 nm was measured using the SpectraMax i3 (Molecular Devices, San Jose, CA, USA). Concentrations of MMP-9 and IL-1β in samples were determined by interpolation from standard curves.
# Differences between treated versus vehicle groups were determined using the Mann-Whitney test and were considered statistically significant when P<0.05. Outliers in the analysis of cytokine and chemokine concentrations were identified using the Grubbs test. No criteria were set for inclusion/exclusion of animals during the experiment or data points during the analysis.
compound,measurement,setting,value
CC[C@H]1OC(=O)[C@H](C)[C@@H](O[C@H]2C[C@@](C)(OC)[C@@H](O)[C@H](C)O2)[C@H](C)[C@@H](O[C@@H]2O[C@H](C)C[C@H](N(C)C)[C@H]2O)[C@](C)(O)C[C@@H](C)CN(C)[C@H](C)[C@@H](O)[C@]1(C)O [Azithromycin],"MMP9, Mean",10 mg/kg,2113 pg/mL
same,TNFα Mean,10 mg/kg,419 pg/mL
same,CCL2 % reduction,30 mg/kg,89%
same,CXCL1 % reduction,30 mg/kg,62%
same,CXCL2 % reduction,30 mg/kg,66%
same,GM-CSF % reduction,30 mg/kg,77%
same,IL-1β % reduction,30 mg/kg,12%
same,IL-6 % reduction,30 mg/kg,89%
same,MMP9 % reduction,30 mg/kg,27%
same,TNFα % reduction,30 mg/kg,77%
same,CCL2,30 mg/kg,1476.16 pg/mL and 999.58 pg/mL and 556.20 pg/mL and 527.89 pg/mL and 1875.36 pg/mL and 690.08 pg/mL and 698.62 pg/mL and 781.98 pg/mL
same,CXCL1,30 mg/kg,6439.29 pg/mL and 6623.20 pg/mL and 4431.51 pg/mL and 4192.30 pg/mL and 6910.31 pg/mL and 3755.15 pg/mL and 2835.10 pg/mL and 5401.78 pg/mL
same,CXCL2,30 mg/kg,7207.48 pg/mL and 4769.86 pg/mL and 3209.88 pg/mL and 2485.22 pg/mL and 5075.82 pg/mL and 2214.38 pg/mL and 1941.44 pg/mL and 6143.97 pg/mL
same,GM-CSF,30 mg/kg,74.67 pg/mL and 53.86 pg/mL and 46.96 pg/mL and 43.52 pg/mL and 113.19 pg/mL and 45.24 pg/mL and 48.68 pg/mL and 57.31 pg/mL
same,IL-1β,30 mg/kg,7544 pg/mL and 10213 pg/mL and 8353 pg/mL and 7459 pg/mL and 10985 pg/mL and 8847 pg/mL and 13576 pg/mL and 10376 pg/mL
same,IL-6,30 mg/kg,510.25 pg/mL and 452.87 pg/mL and 220.67 pg/mL and 149.74 pg/mL and 314.17 pg/mL and 173.48 pg/mL and 475.85 pg/mL
same,MMP9,30 mg/kg,1204 pg/mL and 2421 pg/mL and 1943 pg/mL and 1913 pg/mL and 2288 pg/mL and 1939 pg/mL and 1874 pg/mL and 1816 pg/mL
same,TNFα,30 mg/kg,463.76 pg/mL and 597.19 pg/mL and 177.73 pg/mL and 146.70 pg/mL and 109.09 pg/mL and 202.71 pg/mL and 129.48 pg/mL
same,CCL2 Mean,30 mg/kg,951 pg/mL
same,"CXCL1, Mean",30 mg/kg,5074 pg/mL
same,"CXCL2, Mean",30 mg/kg,4131 pg/mL
same,GM-CSF Mean,30 mg/kg,60 pg/mL
same,IL-1β Mean,30 mg/kg,9669 pg/mL
same,IL-6 Mean,30 mg/kg,306 pg/mL
same,"MMP9, Mean",30 mg/kg,1925 pg/mL
same,TNFα Mean,30 mg/kg,245 pg/mL
same,CCL2 % reduction,100 mg/kg,80%
same,CXCL1 % reduction,100 mg/kg,24%
same,CXCL2 % reduction,100 mg/kg,11%
same,GM-CSF % reduction,100 mg/kg,67%
same,IL-1β % reduction,100 mg/kg,12%
same,IL-6 % reduction,100 mg/kg,8%
same,MMP9 % reduction,100 mg/kg,24%
same,TNFα % reduction,100 mg/kg,36%
same,CCL2,100 mg/kg,3799.67 pg/mL and 664.18 pg/mL and 1172.90 pg/mL and 962.12 pg/mL and 765.59 pg/mL and 1437.03 pg/mL and 877.71 pg/mL and 698.62 pg/mL
same,CXCL1,100 mg/kg,20237.00 pg/mL and 6969.24 pg/mL and 8733.13 pg/mL and 8755.54 pg/mL and 6380.45 pg/mL and 8935.00 pg/mL and 8591.33 pg/mL and 8085.43 pg/mL
same,CXCL2,100 mg/kg,18077.64 pg/mL and 6817.72 pg/mL and 11394.66 pg/mL and 9108.54 pg/mL and 6682.24 pg/mL and 11221.65 pg/mL and 9678.57 pg/mL and 10364.59 pg/mL
same,GM-CSF,100 mg/kg,162.70 pg/mL and 67.71 pg/mL and 85.13 pg/mL and 72.93 pg/mL and 64.24 pg/mL and 90.38 pg/mL and 45.24 pg/mL
same,IL-1β,100 mg/kg,6686 pg/mL and 8985 pg/mL and 9690 pg/mL and 9020 pg/mL and 8022 pg/mL and 10797 pg/mL and 10826 pg/mL and 12960 pg/mL
same,IL-6,100 mg/kg,2378.14 pg/mL and 464.36 pg/mL and 635.80 pg/mL and 669.91 pg/mL and 567.42 pg/mL and 703.95 pg/mL and 884.75 pg/mL and 1176.18 pg/mL
same,MMP9,100 mg/kg,1836 pg/mL and 1554 pg/mL and 2200 pg/mL and 2220 pg/mL and 2073 pg/mL and 2366 pg/mL and 1528 pg/mL and 2063 pg/mL
same,TNFα,100 mg/kg,660.88 pg/mL and 1126.83 pg/mL and 249.05 pg/mL and 935.87 pg/mL and 855.56 pg/mL and 270.54 pg/mL and 656.01 pg/mL and 675.49 pg/mL
same,CCL2 Mean,100 mg/kg,1297 pg/mL
same,"CXCL1, Mean",100 mg/kg,9586 pg/mL
same,"CXCL2, Mean",100 mg/kg,10418 pg/mL
same,GM-CSF Mean,100 mg/kg,83 pg/mL
same,IL-1β Mean,100 mg/kg,9623 pg/mL
same,IL-6 Mean,100 mg/kg,935 pg/mL
same,"MMP9, Mean",100 mg/kg,1980 pg/mL
same,TNFα Mean,100 mg/kg,679 pg/mL
